Results from ChEMBL document CHEMBL1909046, “DrugMatrix in vitro pharmacology data”.

Columns and labels:
[1] = molecular target: C-C chemokine receptor type 2 (Homo sapiens, UniProt P41597); format: cell membranes, CHO-K1, Membrane; details: cho-k1; also: in other assays of this panel Not Active means under 50% inhibition at 10 µM
[2] = molecular target: T1, C-X-C chemokine receptor type 1 (Homo sapiens, UniProt P25024); also: in other assays of this panel Not Active means under 50% inhibition at 10 µM
T1 sequence (P25024 whole entry): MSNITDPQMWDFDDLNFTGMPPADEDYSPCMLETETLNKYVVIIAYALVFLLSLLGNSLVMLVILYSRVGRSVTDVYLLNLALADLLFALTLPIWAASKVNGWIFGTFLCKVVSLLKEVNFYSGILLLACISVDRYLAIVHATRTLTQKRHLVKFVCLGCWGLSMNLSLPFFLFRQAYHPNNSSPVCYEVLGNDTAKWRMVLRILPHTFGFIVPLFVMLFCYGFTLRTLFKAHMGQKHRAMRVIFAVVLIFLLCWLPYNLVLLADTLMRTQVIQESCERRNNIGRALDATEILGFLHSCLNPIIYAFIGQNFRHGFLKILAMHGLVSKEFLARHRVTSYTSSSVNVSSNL

[3] = molecular target: T2, Polyunsaturated fatty acid lipoxygenase ALOX15 (Oryctolagus cuniculus, UniProt P12530); test: biochemical; format: tissue-based, Reticulocytes;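 also: inhibition of 15-lipoxygenase enzyme activity measured with linoleic acid as the substrate; in other assays of this panel Not Active means under 50% inhibition at 10 µM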
T2 sequence (P12530 whole entry): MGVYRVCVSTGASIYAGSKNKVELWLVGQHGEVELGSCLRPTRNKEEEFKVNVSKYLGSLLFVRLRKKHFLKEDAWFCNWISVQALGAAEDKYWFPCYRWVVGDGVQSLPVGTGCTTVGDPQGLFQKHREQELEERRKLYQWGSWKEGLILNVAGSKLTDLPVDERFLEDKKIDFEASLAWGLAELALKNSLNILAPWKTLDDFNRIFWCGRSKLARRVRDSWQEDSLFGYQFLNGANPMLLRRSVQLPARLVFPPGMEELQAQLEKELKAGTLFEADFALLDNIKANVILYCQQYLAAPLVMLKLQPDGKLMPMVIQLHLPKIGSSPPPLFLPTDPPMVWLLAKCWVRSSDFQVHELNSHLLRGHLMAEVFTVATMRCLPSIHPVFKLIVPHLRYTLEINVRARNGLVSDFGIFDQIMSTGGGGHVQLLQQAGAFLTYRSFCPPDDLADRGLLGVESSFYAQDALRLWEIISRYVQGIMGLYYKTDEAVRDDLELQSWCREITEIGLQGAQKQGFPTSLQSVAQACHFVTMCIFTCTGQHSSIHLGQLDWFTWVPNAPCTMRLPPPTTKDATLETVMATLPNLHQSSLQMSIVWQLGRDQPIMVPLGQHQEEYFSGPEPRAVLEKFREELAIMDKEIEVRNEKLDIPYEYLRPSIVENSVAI

Melanocortin receptor 4 = Melanocortin receptor 4 (Homo sapiens, UniProt P32245); format: cell membranes, Membrane; details: hek293; also: in other assays of this panel Not Active means under 50% inhibition at 10 µM
Melanocortin receptor 4, sequence (P32245 whole entry): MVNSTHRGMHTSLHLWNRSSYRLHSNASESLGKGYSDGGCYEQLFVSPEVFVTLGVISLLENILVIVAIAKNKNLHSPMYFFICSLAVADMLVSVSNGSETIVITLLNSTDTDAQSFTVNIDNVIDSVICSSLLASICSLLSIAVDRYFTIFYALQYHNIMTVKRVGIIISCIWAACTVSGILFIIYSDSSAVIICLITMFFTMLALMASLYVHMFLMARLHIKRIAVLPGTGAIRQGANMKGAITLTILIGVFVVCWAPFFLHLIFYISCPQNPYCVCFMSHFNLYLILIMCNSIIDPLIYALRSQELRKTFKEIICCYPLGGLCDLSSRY

[4] = molecular target: T3, Neuropeptide Y receptor type 1 (Homo sapiens, UniProt P25929); format: cell membranes, Membrane; details: sk-n-mc; also: in other assays of this panel Not Active means under 50% inhibition at 10 µM
T3 sequence (P25929 whole entry): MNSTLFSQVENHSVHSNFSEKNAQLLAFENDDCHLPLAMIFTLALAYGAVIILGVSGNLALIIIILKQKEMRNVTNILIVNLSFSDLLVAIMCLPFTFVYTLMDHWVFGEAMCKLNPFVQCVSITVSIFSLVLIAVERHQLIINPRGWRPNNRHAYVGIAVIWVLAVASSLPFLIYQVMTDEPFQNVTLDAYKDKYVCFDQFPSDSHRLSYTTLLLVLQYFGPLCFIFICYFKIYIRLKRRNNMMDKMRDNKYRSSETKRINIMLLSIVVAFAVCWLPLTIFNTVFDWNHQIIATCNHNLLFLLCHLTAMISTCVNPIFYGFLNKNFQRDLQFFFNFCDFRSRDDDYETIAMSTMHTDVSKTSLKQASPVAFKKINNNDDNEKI

[5] = DRUGMATRIX: Phosphodiesterase PDE4 enzyme inhibition (substrate: [3H]cAMP + cAMP); details: u-937; Not Active = under 50% inhibition at 10 µM
Adenosine receptor A3 = molecular target: T4, Adenosine receptor A3 (Homo sapiens, UniProt P0DMS8); format: cell membranes, CHO-K1, Membrane; details: for Ki: read-out: Ki
T4 sequence (P0DMS8 whole entry): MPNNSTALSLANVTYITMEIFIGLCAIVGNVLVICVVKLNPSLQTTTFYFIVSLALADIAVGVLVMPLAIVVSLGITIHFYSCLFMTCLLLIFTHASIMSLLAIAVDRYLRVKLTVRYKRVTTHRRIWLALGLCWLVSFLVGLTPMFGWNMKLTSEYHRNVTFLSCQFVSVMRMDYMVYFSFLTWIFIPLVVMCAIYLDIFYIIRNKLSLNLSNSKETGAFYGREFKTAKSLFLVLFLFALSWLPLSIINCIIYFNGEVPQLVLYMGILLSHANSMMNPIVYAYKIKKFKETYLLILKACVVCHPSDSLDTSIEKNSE

C-C chemokine receptor type 2, sequence (P41597 whole entry): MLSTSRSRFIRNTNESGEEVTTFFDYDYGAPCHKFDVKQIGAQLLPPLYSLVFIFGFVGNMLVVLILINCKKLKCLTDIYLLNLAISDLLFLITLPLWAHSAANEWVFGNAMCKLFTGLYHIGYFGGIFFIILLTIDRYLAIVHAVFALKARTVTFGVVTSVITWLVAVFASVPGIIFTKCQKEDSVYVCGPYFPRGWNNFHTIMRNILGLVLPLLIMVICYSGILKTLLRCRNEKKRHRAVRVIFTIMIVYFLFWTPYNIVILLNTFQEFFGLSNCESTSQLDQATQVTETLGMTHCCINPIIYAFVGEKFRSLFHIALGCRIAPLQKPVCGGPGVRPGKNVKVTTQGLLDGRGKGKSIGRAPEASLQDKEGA

| Structure (SMILES) | IC50 [1] | IC50 [2] | IC50 ([3]; reticulocytes) | IC50 (Melanocortin receptor 4) | IC50 [4] | IC50 [5] | Ki [5] | IC50 (Adenosine receptor A3; cho-k1) | IC50 ([3]; read-out: IC50) [µM] | IC50 (Adenosine receptor A3; read-out: IC50) [µM] | Ki (Adenosine receptor A3) [µM] |
| --- | --- | --- | --- | --- | --- | --- | --- | --- | --- | --- | --- |
| Nc1nc(N)c2nc(CNc3ccc(C(=O)N[C@@H](CCC(=O)O)C(=O)O)cc3)cnc2n1 [AMINOPTERIN] | Not Active | Not Active | Not Active | Not Active | Not Active | Not Active | Not Active | Not Active | – | – | – |
| CC(=O)Nc1ccc2c(c1)Cc1ccccc1-2 [2-ACETYLAMINOFLUORENE] | Not Active | Not Active | Not Active | Not Active | Not Active | Not Active | Not Active | Not Active | – | – | – |
| C=C(Cl)Cl [1,1-DICHLOROETHENE] | Not Active | Not Active | Not Active | Not Active | Not Active | Not Active | Not Active | Not Active | – | – | – |
| C#C[C@]1(O)CC[C@H]2[C@@H]3CCC4=CC(=O)CC[C@@H]4[C@H]3CC[C@@]21C [NORETHINDRONE] | Not Active | Not Active | Not Active | Not Active | Not Active | Not Active | Not Active | Not Active | – | – | – |
| CC[C@H]1OC(=O)[C@H](C)[C@@H](O[C@H]2C[C@@](C)(OC)[C@@H](O)[C@H](C)O2)[C@H](C)[C@@H](O[C@@H]2O[C@H](C)C[C@H](N(C)C)[C@H]2O)[C@](C)(O)C[C@@H](C)C(=O)[C@H](C)[C@@H](O)[C@]1(C)O [ERYTHROMYCIN] | Not Active | Not Active | Not Active | Not Active | Not Active | Not Active | Not Active | Not Active | – | – | – |
| c1ccc2c(c1)Nc1ccccc1S2 [PHENOTHIAZINE] | Not Active | Not Active | – | Not Active | Not Active | Not Active | Not Active | – | 4.64 | 25.6 | 14.5 |
| C[C@H](C(=O)O)c1ccc2oc(-c3ccc(F)cc3)nc2c1 [FLUNOXAPROFEN] | Not Active | Not Active | Not Active | Not Active | Not Active | Not Active | Not Active | Not Active | – | – | – |
| CC1(COc2ccc(CC3SC(=O)NC3=O)cc2)CCCCC1 (stereo not drawn) [CIGLITAZONE] | Not Active | Not Active | Not Active | Not Active | Not Active | Not Active | Not Active | – | – | 3.05 | 1.72 |
| C=CCN1CC[C@]23c4c5ccc(O)c4O[C@H]2/C(=N/N=C2\CC[C@@]4(O)[C@H]6Cc7ccc(O)c8c7[C@@]4(CCN6CC=C)[C@H]2O8)CC[C@@]3(O)[C@H]1C5 [NALOXONAZINE] | Not Active | Not Active | Not Active | Not Active | Not Active | Not Active | Not Active | Not Active | – | – | – |
| C[N+](C)(C)CCOP(=O)([O-])OC[C@H](O)CO | Not Active | Not Active | Not Active | Not Active | Not Active | Not Active | Not Active | Not Active | – | – | – |
| CCC1(c2ccccc2)C(=O)NC(=O)NC1=O [PHENOBARBITAL] | Not Active | Not Active | Not Active | Not Active | Not Active | Not Active | Not Active | Not Active | – | – | – |
| O=C(O)COC(=O)Cc1ccccc1Nc1c(Cl)cccc1Cl [ACECLOFENAC] | Not Active | Not Active | Not Active | Not Active | Not Active | Not Active | Not Active | Not Active | – | – | – |
